# ChEMBL document CHEMBL4138123, “Design, synthesis and biological evaluation of novel pyrazolochalcones as potential modulators of PI3K/Akt/mTOR pathway and inducers of apoptosis in breast cancer cells” (Eur J Med Chem, 2017)
# What was measured:
# Format in all cases: functional
# [1] = test system: NCI-H522; assay: Cytotoxicity against human NCI-H522 cells assessed as growth inhibition after 48 hrs by sulforhodamine B assay; conditions: NCI-H522, 48 h
# [2] = test system: NCI/ADR-RES; assay: Cytotoxicity against human NCI/ADR-RES cells assessed as growth inhibition after 48 hrs by sulforhodamine B assay
# [3] = test system: PC-3; assay: Cytotoxicity against human PC3 cells assessed as growth inhibition after 48 hrs by sulforhodamine B assay; conditions: PC-3, 48 h
# [4] = test system: Hs-578T; assay: Cytotoxicity against human Hs 578T cells assessed as growth inhibition after 48 hrs by sulforhodamine B assay
# [5] = test system: UACC-62; assay: Cytotoxicity against human UACC62 cells assessed as cell growth at 0.01 uM after 48 hrs by sulforhodamine B assay relative to control; conditions: UACC-62, 48 h, read-out: Activity
# [6] = test system: HCT-116; assay: Cytotoxicity against human HCT116 cells assessed as cell growth at 0.01 uM after 48 hrs by sulforhodamine B assay relative to control; conditions: HCT-116, 48 h, read-out: Activity
# [7] = test system: HCC 2998; assay: Cytotoxicity against human HCC2998 cells assessed as cell growth at 0.01 uM after 48 hrs by sulforhodamine B assay relative to control; conditions: HCC 2998, 48 h, read-out: Activity
# [8] = test system: BT-549; assay: Cytotoxicity against human BT549 cells assessed as cell growth at 0.01 uM after 48 hrs by sulforhodamine B assay relative to control; conditions: BT-549, 48 h, read-out: Activity
# [9] = test system: NCI-H460; assay: Cytotoxicity against human NCI-H460 cells assessed as cell growth at 0.1 uM after 48 hrs by sulforhodamine B assay relative to control; conditions: NCI-H460, 48 h, read-out: Activity
# [10] = test system: SF-539; assay: Cytotoxicity against human SF539 cells assessed as cell growth at 0.1 uM after 48 hrs by sulforhodamine B assay relative to control; conditions: SF-539, 48 h, read-out: Activity
# [11] = test system: SK-OV-3; assay: Cytotoxicity against human SKOV3 cells assessed as cell growth at 0.1 uM after 48 hrs by sulforhodamine B assay relative to control; conditions: SK-OV-3, 48 h, read-out: Activity
# [12] = test system: SN12C; assay: Cytotoxicity against human SN12C cells assessed as cell growth at 0.1 uM after 48 hrs by sulforhodamine B assay relative to control; conditions: read-out: Activity
# [13] = test system: MDA-MB-468; assay: Cytotoxicity against human MDA-MB-468 cells assessed as cell growth at 0.1 uM after 48 hrs by sulforhodamine B assay relative to control; conditions: MDA-MB-468, 48 h, read-out: Activity
# [14] = test system: CCRF-CEM; assay: Cytotoxicity against human CCRF-CEM cells assessed as cell growth at 1 uM after 48 hrs by sulforhodamine B assay relative to control; conditions: read-out: Activity
# [15] = test system: NCI-H23; assay: Cytotoxicity against human NCI-H23 cells assessed as cell growth at 1 uM after 48 hrs by sulforhodamine B assay relative to control; conditions: NCI-H23, 48 h, read-out: Activity
# [16] = test system: HT-29; assay: Cytotoxicity against human HT-29 cells assessed as cell growth at 1 uM after 48 hrs by sulforhodamine B assay relative to control; conditions: HT-29, 48 h, read-out: Activity
# [17] = test system: Malme-3M; assay: Cytotoxicity against human MALME-3M cells assessed as cell growth at 1 uM after 48 hrs by sulforhodamine B assay relative to control; conditions: read-out: Activity
# [18] = test system: MDA-MB-435; assay: Cytotoxicity against human MDA-MB-435 cells assessed as cell growth at 1 uM after 48 hrs by sulforhodamine B assay relative to control; conditions: MDA-MB-435, 48 h, read-out: Activity
# [19] = test system: SK-MEL-28; assay: Cytotoxicity against human SK-MEL-28 cells assessed as cell growth at 1 uM after 48 hrs by sulforhodamine B assay relative to control; conditions: SK-MEL-28, 48 h, read-out: Activity
# [20] = test system: 786-0; assay: Cytotoxicity against human 786-0 cells assessed as cell growth at 1 uM after 48 hrs by sulforhodamine B assay relative to control; conditions: 786-0, 48 h, read-out: Activity
# [21] = test system: UO-31; assay: Cytotoxicity against human UO31 cells assessed as cell growth at 1 uM after 48 hrs by sulforhodamine B assay relative to control; conditions: UO-31, 48 h, read-out: Activity
# [22] = test system: K562; assay: Cytotoxicity against human K562 cells assessed as cell growth at 10 uM after 48 hrs by sulforhodamine B assay relative to control; conditions: K562, 48 h, read-out: Activity
# [23] = test system: KM12; assay: Cytotoxicity against human KM12 cells assessed as cell growth at 10 uM after 48 hrs by sulforhodamine B assay relative to control; conditions: KM12, 48 h, read-out: Activity
# [24] = test system: SNB-19; assay: Cytotoxicity against human SNB19 cells assessed as cell growth at 10 uM after 48 hrs by sulforhodamine B assay relative to control; conditions: SNB-19, 48 h, read-out: Activity
# [25] = test system: Malme-3M; assay: Cytotoxicity against human MALME-3M cells assessed as cell growth at 10 uM after 48 hrs by sulforhodamine B assay relative to control; conditions: read-out: Activity
# [26] = test system: MDA-MB-435; assay: Cytotoxicity against human MDA-MB-435 cells assessed as cell growth at 10 uM after 48 hrs by sulforhodamine B assay relative to control; conditions: MDA-MB-435, 48 h, read-out: Activity
# [27] = test system: OVCAR-3; assay: Cytotoxicity against human OVCAR3 cells assessed as cell growth at 10 uM after 48 hrs by sulforhodamine B assay relative to control; conditions: OVCAR-3, 48 h, read-out: Activity
# [28] = test system: OVCAR-8; assay: Cytotoxicity against human OVCAR8 cells assessed as cell growth at 10 uM after 48 hrs by sulforhodamine B assay relative to control; conditions: OVCAR-8, 48 h, read-out: Activity
# [29] = test system: RXF 393; assay: Cytotoxicity against human RXF393 cells assessed as cell growth at 10 uM after 48 hrs by sulforhodamine B assay relative to control; conditions: RXF 393, 48 h, read-out: Activity
# [30] = test system: K562; assay: Cytotoxicity against human K562 cells assessed as cell growth at 100 uM after 48 hrs by sulforhodamine B assay relative to control; conditions: K562, 48 h, read-out: Activity
# [31] = test system: HCC 2998; assay: Cytotoxicity against human HCC2998 cells assessed as cell growth at 100 uM after 48 hrs by sulforhodamine B assay relative to control; conditions: HCC 2998, 48 h, read-out: Activity
# [32] = test system: HT-29; assay: Cytotoxicity against human HT-29 cells assessed as cell growth at 100 uM after 48 hrs by sulforhodamine B assay relative to control; conditions: HT-29, 48 h, read-out: Activity
# [33] = test system: UACC-62; assay: Cytotoxicity against human UACC62 cells assessed as cell growth at 100 uM after 48 hrs by sulforhodamine B assay relative to control; conditions: UACC-62, 48 h, read-out: Activity
# [34] = test system: OVCAR-8; assay: Cytotoxicity against human OVCAR8 cells assessed as cell growth at 100 uM after 48 hrs by sulforhodamine B assay relative to control; conditions: OVCAR-8, 48 h, read-out: Activity
# [35] = test system: MDA-MB-468; assay: Cytotoxicity against human MDA-MB-468 cells assessed as cell growth at 100 uM after 48 hrs by sulforhodamine B assay relative to control; conditions: MDA-MB-468, 48 h, read-out: Activity
# [36] = test system: PC-3; assay: Cytotoxicity against human PC3 cells assessed as cell growth at 10 uM after 48 hrs by sulforhodamine B assay relative to control; conditions: PC-3, 48 h, read-out: Activity
structure (smiles),measurement,setting,value
COc1ccc(-c2cc(/C=C/C(=O)c3ccc(N)cc3)[nH]n2)cc1,GI50,[1],1.21 µM
same,LC50,[1],7.03 µM
same,TGI,[1],2.91 µM
same,GI50,[2],2.86 µM
same,LC50,[2],> 100 µM
same,TGI,[2],15.5 µM
same,GI50,[3],2.42 µM
same,LC50,[3],39.8 µM
same,TGI,[3],10.1 µM
same,GI50,[4],4.04 µM
same,LC50,[4],> 100 µM
same,TGI,[4],24.4 µM
same,growth at 0.01 µM,[5],96%
same,growth at 0.01 µM,[6],97%
same,growth at 0.01 µM,[7],96%
same,growth at 0.01 µM,[8],92%
same,growth at 0.1 µM,[9],102%
same,growth at 0.1 µM,[10],97%
same,growth at 0.1 µM,[11],103%
same,growth at 0.1 µM,[12],94%
same,growth at 0.1 µM,[13],86%
same,growth at 1 µM,[14],61%
same,growth at 1 µM,[15],93%
same,growth at 1 µM,[16],97%
same,growth at 1 µM,[17],87%
same,growth at 1 µM,[18],85%
same,growth at 1 µM,[19],91%
same,growth at 1 µM,[20],88%
same,growth at 1 µM,[21],61%
same,growth at 10 µM,[22],4%
same,growth at 10 µM,[23],-67%
same,growth at 10 µM,[24],5%
same,growth at 10 µM,[25],-23%
same,growth at 10 µM,[26],-16%
same,growth at 10 µM,[27],-70%
same,growth at 10 µM,[28],9%
same,growth at 10 µM,[29],-47%
same,growth at 100 µM,[30],-60%
same,growth at 100 µM,[31],-93%
same,growth at 100 µM,[32],-56%
same,growth at 100 µM,[33],-93%
same,growth at 100 µM,[34],-41%
same,growth at 100 µM,[35],-51%
COc1cc(-c2cc(/C=C/C(=O)c3ccc(N)cc3)[nH]n2)cc(OC)c1OC,GI50,[1],1.62 µM
same,LC50,[1],9.81 µM
same,TGI,[1],3.99 µM
same,GI50,[2],3.8 µM
same,LC50,[2],> 100 µM
same,TGI,[2],65.8 µM
same,GI50,[3],2.21 µM
same,LC50,[3],> 100 µM
same,TGI,[3],10.4 µM
same,GI50,[4],4.33 µM
same,LC50,[4],> 100 µM
same,TGI,[4],> 100 µM
same,growth at 0.01 µM,[5],99%
same,growth at 0.01 µM,[6],95%
same,growth at 0.01 µM,[7],108%
same,growth at 0.01 µM,[8],85%
same,growth at 0.1 µM,[9],102%
same,growth at 0.1 µM,[10],99%
same,growth at 0.1 µM,[11],98%
same,growth at 0.1 µM,[12],99%
same,growth at 0.1 µM,[13],83%
same,growth at 1 µM,[14],36%
same,growth at 1 µM,[15],95%
same,growth at 1 µM,[16],82%
same,growth at 1 µM,[17],93%
same,growth at 1 µM,[18],88%
same,growth at 1 µM,[19],90%
same,growth at 1 µM,[20],81%
same,growth at 1 µM,[21],71%
same,growth at 10 µM,[22],2%
same,growth at 10 µM,[23],-67%
same,growth at 10 µM,[25],-45%
same,growth at 10 µM,[26],-86%
same,growth at 10 µM,[27],-71%
same,growth at 10 µM,[28],-1%
same,growth at 10 µM,[29],-64%
same,growth at 10 µM,[36],1%
same,growth at 100 µM,[30],-3%
same,growth at 100 µM,[31],-91%
same,growth at 100 µM,[32],-49%
same,growth at 100 µM,[33],-92%
same,growth at 100 µM,[34],-91%
same,growth at 100 µM,[35],-65%
COc1cc(C(=O)/C=C/c2cc(-c3cc(OC)c(OC)c(OC)c3)n[nH]2)cc(OC)c1OC,LC50,[1],4.22 µM
same,TGI,[1],1.7 µM
same,LC50,[2],> 100 µM
same,TGI,[2],21.4 µM
same,LC50,[3],7.36 µM
same,TGI,[3],3.29 µM
same,LC50,[4],> 100 µM
same,TGI,[4],53.9 µM
same,growth at 0.01 µM,[5],97%
same,growth at 0.01 µM,[6],97%
same,growth at 0.01 µM,[7],102%
same,growth at 0.01 µM,[8],102%
same,growth at 0.1 µM,[9],104%
same,growth at 0.1 µM,[10],91%
same,growth at 0.1 µM,[11],95%
same,growth at 0.1 µM,[12],98%
same,growth at 0.1 µM,[13],84%
same,growth at 1 µM,[14],67%
same,growth at 1 µM,[15],97%
same,growth at 1 µM,[16],96%
same,growth at 1 µM,[17],89%
same,growth at 1 µM,[18],79%
same,growth at 1 µM,[19],100%
same,growth at 1 µM,[20],80%
same,growth at 1 µM,[21],62%
same,growth at 10 µM,[23],-90%
same,growth at 10 µM,[24],-62%
same,growth at 10 µM,[25],-57%
same,growth at 10 µM,[26],-90%
same,growth at 10 µM,[27],-96%
same,growth at 10 µM,[28],-76%
same,growth at 10 µM,[29],-88%
same,growth at 10 µM,[36],-69%
same,growth at 100 µM,[30],1%
same,growth at 100 µM,[31],-89%
same,growth at 100 µM,[32],-58%
same,growth at 100 µM,[33],-97%
same,growth at 100 µM,[34],-99%
same,growth at 100 µM,[35],-91%
